Test results: PubChem BioAssay (NCI)
“And” between values parts separate entries of the source, which are not always exact repeats. Equal entries are not always repeated.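 Dose response: 5 concentrations. Exposure: 48 h. Format: 96-well plates. Endpoint: linear interpolation; highest concentration if not reached. Definition used: TGI = concentration required for complete inhibition of growth.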

Key:
Assay in all cases: NCI tumour cell line growth inhibition, 48 h
SK-MEL-28 melanoma = test system: SK-MEL-28 melanoma
DMS 273 small cell lung = test system: DMS 273 small cell lung
CCRF-CEM leukemia = test system: CCRF-CEM leukemia
U251 CNS = test system: U251 CNS
SK-OV-3 ovarian = test system: SK-OV-3 ovarian
SF-268 CNS = test system: SF-268 CNS
IGROV1 ovarian = test system: IGROV1 ovarian
LXFL 529 NSCLC = test system: LXFL 529 NSCLC
NCI-H460 lung = test system: NCI-H460 lung
KM12 colon = test system: KM12 colon
XF 498 CNS = test system: XF 498 CNS
SF-539 CNS = test system: SF-539 CNS
RPMI-8226 leukemia = test system: RPMI-8226 leukemia
HOP-92 NSCLC = test system: HOP-92 NSCLC
HCC-2998 colon = test system: HCC-2998 colon
UACC-257 melanoma = test system: UACC-257 melanoma
HCT-116 colon = test system: HCT-116 colon
A549 NSCLC = test system: A549 NSCLC
SNB-19 CNS = test system: SNB-19 CNS
A498 renal = test system: A498 renal
OVCAR-5 ovarian = test system: OVCAR-5 ovarian
HT29 colon = test system: HT29 colon
HOP-18 NSCLC = test system: HOP-18 NSCLC
SNB-78 CNS = test system: SNB-78 CNS
SNB-75 CNS = test system: SNB-75 CNS
M14 melanoma = test system: M14 melanoma
HL-60(TB) leukemia = test system: HL-60(TB) leukemia
SK-MEL-5 melanoma = test system: SK-MEL-5 melanoma
SR leukemia = test system: SR leukemia
786-0 renal = test system: 786-0 renal
NCI-H23 lung = test system: NCI-H23 lung
SW-620 colon = test system: SW-620 colon
RXF 393 renal = test system: RXF 393 renal
DMS 114 small cell lung = test system: DMS 114 small cell lung
CAKI-1 renal = test system: CAKI-1 renal
SK-MEL-2 melanoma = test system: SK-MEL-2 melanoma
MOLT-4 leukemia = test system: MOLT-4 leukemia
RXF-631 renal = test system: RXF-631 renal
TK-10 renal = test system: TK-10 renal
ACHN renal = test system: ACHN renal
OVCAR-4 ovarian = test system: OVCAR-4 ovarian
UO-31 renal = test system: UO-31 renal
SN12C renal = test system: SN12C renal
HCT-15 colon = test system: HCT-15 colon
MALME-3M melanoma = test system: MALME-3M melanoma
LOX IMVI melanoma = test system: LOX IMVI melanoma
OVCAR-8 ovarian = test system: OVCAR-8 ovarian
NCI-H522 lung = test system: NCI-H522 lung
DLD-1 colon = test system: DLD-1 colon
SF-295 CNS = test system: SF-295 CNS
EKVX NSCLC = test system: EKVX NSCLC
HOP-62 NSCLC = test system: HOP-62 NSCLC
UACC-62 melanoma = test system: UACC-62 melanoma
K-562 leukemia = test system: K-562 leukemia
KM20L2 colon = test system: KM20L2 colon
M19-MEL melanoma = test system: M19-MEL melanoma
NCI-H226 lung = test system: NCI-H226 lung
BT-549 breast = test system: BT-549 breast
HS 578T breast = test system: HS 578T breast
MDA-MB-435 = test system: MDA-MB-435
NCI/ADR-RES ovarian = test system: NCI/ADR-RES ovarian
MDA-MB-231 breast = test system: MDA-MB-231 breast
T-47D breast = test system: T-47D breast
COLO 205 colon = test system: COLO 205 colon
DU-145 prostate = test system: DU-145 prostate
OVCAR-3 ovarian = test system: OVCAR-3 ovarian
PC-3 prostate = test system: PC-3 prostate
MCF7 breast = test system: MCF7 breast

Measured: TGI

CN(c1nc(=[N+](C)C)ss1)C1CCCCC1
not listed: BT-549 breast | HS 578T breast | MDA-MB-435 | NCI/ADR-RES ovarian | MDA-MB-231 breast | T-47D breast | COLO 205 colon | DU-145 prostate | OVCAR-3 ovarian | PC-3 prostate | MCF7 breast
> 100 µM: all other assays above

O=S(=O)(O)c1ccc(-c2c3nc(c(-c4ccc(S(=O)(=O)O)cc4)c4ccc([nH]4)c(-c4ccc(S(=O)(=O)O)cc4)c4nc(c(-c5ccc(S(=O)(=O)O)cc5)c5ccc2[nH]5)C=C4)C=C3)cc1
12.8 µM and > 100 µM: MOLT-4 leukemia
> 100 µM and 55.1 µM: SNB-75 CNS
74.5 µM: BT-549 breast
96.2 µM and 85.3 µM: RXF 393 renal
> 100 µM and 54.8 µM: UO-31 renal
> 100 µM and 73.4 µM: SK-MEL-28 melanoma
> 100 µM and 76.8 µM: HOP-92 NSCLC
73.9 µM and > 100 µM: TK-10 renal
79.9 µM and > 100 µM: CCRF-CEM leukemia
93.6 µM: NCI-H226 lung
> 100 µM: all other assays above
